Data published in patent US7531573B2 (priority 1994, dated 2009).
Like-named read-outs stand apart in the source and are kept apart here.

Columns and labels:
[1] = molecular target: Gardos channel of erythrocytes (Homo sapiens, UniProt O15554); experiment: cell-based; details: for inhibition at 10 µM: read-out: Gardos Channel % Inhibition
[2] = system: NIH 3T3 mouse fibroblast cells; experiment: Mitogen-induced cell proliferation; assay type: cell-based; details: for inhibition at 10 µM: NIH3T3, read-out: Mitogen-induced cell proliferation % Inhibition; for IC50: NIH3T3, read-out: Mitogen-induced cell proliferation IC50
Source text: Other cell lines, e.g., cancer cells, endothelial cells and fibroblasts, as well as many others, may be used in the cell proliferation assay. Selection of a particular cell line will depend in part on the desired application, and is well within the capabilities of an ordinarily skilled artisan.

[3] = erythrocytes, read-out: Gardos Channel IC50

Sequence of Gardos channel of erythrocytes (O15554 whole entry): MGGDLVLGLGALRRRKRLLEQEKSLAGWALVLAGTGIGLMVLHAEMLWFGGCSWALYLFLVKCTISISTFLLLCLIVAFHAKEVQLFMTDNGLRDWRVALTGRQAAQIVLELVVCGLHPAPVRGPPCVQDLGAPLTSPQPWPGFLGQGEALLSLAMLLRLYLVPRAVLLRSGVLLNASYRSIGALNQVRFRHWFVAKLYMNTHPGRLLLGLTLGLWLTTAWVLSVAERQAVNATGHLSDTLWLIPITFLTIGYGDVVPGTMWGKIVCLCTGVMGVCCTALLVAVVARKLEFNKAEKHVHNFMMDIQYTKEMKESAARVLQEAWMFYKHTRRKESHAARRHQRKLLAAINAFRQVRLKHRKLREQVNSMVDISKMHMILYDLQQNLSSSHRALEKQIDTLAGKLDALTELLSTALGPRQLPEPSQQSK

Row | IC50 [1] | Compound | inhibition at 10 µM [1] | inhibition at 10 µM [2] | IC50 [2] | IC50 [1, 3]
1 |  | N#CCC(c1ccc(Cl)cc1)(c1ccc(Cl)cc1)c1ccc(Cl)cc1 [Compound 26] | 10% | 99% | 1300 nM | 
2 |  | Fc1ccccc1C(c1ccccc1)c1ccccc1 [Compound 27] | 100% | 99% | 3000 nM | 449 nM
3 |  | O=C(O)C(Cc1ccc2ccccc2c1)C(c1ccccc1)(c1ccccc1)c1ccccc1 (stereo not drawn) [Compound 28] | 98% | 99% | 700 nM | 5220 nM
4 |  | NCCC(c1ccccc1)(c1ccccc1)c1ccccc1 [Compound 29] | 100% | 99% | 3100 nM | 649 nM
5 |  | NOC(c1ccccc1)(c1ccccc1)c1ccccc1 [Compound 34] | 96.3% | 68% |  | 939 nM
6 | 430 nM | OCC(c1ccccc1)(c1ccccc1)c1ccccc1 [Compound 35] | 95.8% | 38% |  | 
7 |  | CC(=O)C(c1ccccc1)(c1ccccc1)c1ccccc1 [Compound 37] | 100% | 31% |  | 57 nM
8 |  | O=CCC(c1ccccc1)(c1ccccc1)c1ccccc1 [Compound 38] | 92% | 99% | 800 to 2300 nM | 220 nM
9 |  | O=C(O)CC(c1ccc(Cl)cc1)(c1ccc(Cl)cc1)c1ccc(Cl)cc1 [Compound 39] | 97% | 99% | 3300 nM | 1680 nM
10 |  | NCCC(c1ccc(Cl)cc1)(c1ccc(Cl)cc1)c1ccc(Cl)cc1 [Compound 41] | 97% | 99% | 1400 nM | 2070 nM
11 | 615 nM | Oc1ccccc1C(O)(c1ccccc1)c1ccccc1 [Compound 42] | 99% | 99% | 3300 nM | 
12 | 61 nM | OC(c1ccccc1)(c1ccccc1)c1ccc(Cl)cc1 [Compound 43] | 99% | 99% | 800 nM | 
13 |  | COC(=O)c1ccccc1C(c1ccccc1)c1ccccc1 [Compound 45] | 98% | 99% | 800 nM | 320 nM
14 |  | CCOC(c1ccccc1)(c1ccccc1)c1ccccc1 [Compound 46] | 99.5% | 99% | 2200 nM | 76 nM
15 |  | CCOC(=O)C(c1ccccc1)(c1ccccc1)c1ccccc1 [Compound 47] | 100% | 99% | 800 nM | 193 nM
16 | 1290 nM | OC(C#Cc1ccccc1)(c1ccccc1)c1ccccc1 [Compound 48] | 100% | 98% | 400 nM | 
17 |  | N#CC(c1ccccc1)(c1ccccc1)c1ccc([N+](=O)[O-])cc1Cl [Compound 49] | 88% | 94% | 300 nM | 336 nM
18 | 288 nM | OC(c1ccccc1)(c1ccc(Br)cc1)c1ccc(Br)cc1 [Compound 50] | 100% | 99% | 500 nM | 
19 |  | COC(c1ccccc1)(c1ccccc1)c1ccccc1 [Compound 51] | 100% | 37% |  | 551 nM

Row | Compound | IC50 [1] | inhibition at 10 µM [1] | inhibition at 10 µM [2] | IC50 [2] | IC50 [1, 3]
20 | CCOC(=O)C(C(=O)OCC)C(c1ccccc1)(c1ccccc1)c1ccccc1 [Compound 31] | 445 nM | 99% | 89% | 2600 nM | 
21 | CCOC(=O)C(C(=O)OCC)C(c1ccccc1)(c1ccccc1)c1ccccc1Cl [Compound 33] | 125 nM | 100% | 45% |  | 
22 | C#C[Si](c1ccccc1)(c1ccccc1)c1ccccc1 [Compound 44] | 388 nM | 79.4% | 82% |  | 
